Experiments:
Format in all cases: cell-based
[1] = target: T1, GATA4–NKX2-5 transcriptional synergy (Mus musculus, UniProt P42582+Q08369); assay: GATA4–NKX2-5 transcriptional synergy luciferase reporter assay (3xNKE reporter, COS-1 cells); details: COS-1, luciferase reporter activity relative to control
T1 construct: expressed in transfected cells; host or cells: COS-1

[2] = target: T2, NKX2-5 transcriptional activity (Mus musculus, UniProt P42582); assay: NKX2-5 luciferase reporter assay (3xNKE reporter, COS-1 cells); details: COS-1, luciferase reporter activity relative to control; for activity at 3 µM: read-out: NKX.3µM; for activity at 10 µM: read-out: NKX.10µM
T2 construct: expressed in transfected cells; host or cells: COS-1

[3] = target: T3, GATA4 transcriptional activity (Mus musculus, UniProt Q08369); assay: GATA4 luciferase reporter assay (tandem GATA-site reporter, COS-1 cells); details: for activity at 3 µM / activity at 10 µM: COS-1, luciferase reporter activity relative to control
T3 construct: expressed in transfected cells; host or cells: COS-1

COS-1 cells [4] = assay: LDH assay (necrosis)
COS-1 cells [5] = assay: MTT assay (cell viability); details: for MTT.1µM / MTT.3µM / MTT.10µM / MTT.30µM: cell viability

T3 sequence (Q08369 whole entry): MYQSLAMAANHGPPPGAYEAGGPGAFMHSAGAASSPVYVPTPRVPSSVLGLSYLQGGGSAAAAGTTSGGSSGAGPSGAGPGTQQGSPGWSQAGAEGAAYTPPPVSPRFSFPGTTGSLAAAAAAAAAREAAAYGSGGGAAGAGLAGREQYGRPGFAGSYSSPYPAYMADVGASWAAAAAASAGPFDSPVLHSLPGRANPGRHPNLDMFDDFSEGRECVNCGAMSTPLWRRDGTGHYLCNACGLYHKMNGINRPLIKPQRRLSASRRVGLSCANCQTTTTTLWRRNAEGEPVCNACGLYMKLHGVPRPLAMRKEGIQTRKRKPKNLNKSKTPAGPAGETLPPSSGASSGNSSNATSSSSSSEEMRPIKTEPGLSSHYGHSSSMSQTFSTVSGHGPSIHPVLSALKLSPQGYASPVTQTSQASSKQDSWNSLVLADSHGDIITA
T1 sequence (Q08369 whole entry): as above
T1 sequence (P42582 whole entry): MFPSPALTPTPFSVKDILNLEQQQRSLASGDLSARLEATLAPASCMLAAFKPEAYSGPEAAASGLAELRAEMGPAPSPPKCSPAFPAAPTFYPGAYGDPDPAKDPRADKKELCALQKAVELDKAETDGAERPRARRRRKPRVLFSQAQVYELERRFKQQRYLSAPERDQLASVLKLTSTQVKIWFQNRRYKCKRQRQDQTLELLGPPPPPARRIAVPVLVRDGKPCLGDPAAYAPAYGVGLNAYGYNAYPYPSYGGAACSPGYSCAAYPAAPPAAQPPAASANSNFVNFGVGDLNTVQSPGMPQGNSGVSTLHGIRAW
T2 sequence (P42582 whole entry): as above

SMILES | activity at 3 µM [1] [%] | activity at 3 µM [2] [%] | activity at 3 µM [3] [%] | activity at 10 µM [3] [%] | activity at 10 µM [1] [%] | activity at 10 µM [2] [%] | GATA4 (% of control) Mean ± SD ([3]; 10 μM, COS-1 cells, 24 h) | LDH.1µM (COS-1 cells [4]) | LDH.3µM (COS-1 cells [4]) | LDH.10µM (COS-1 cells [4]) | LDH.30µM (COS-1 cells [4]) | MTT.1µM (COS-1 cells [5]) | MTT.3µM (COS-1 cells [5]) | MTT.10µM (COS-1 cells [5]) | MTT.30µM (COS-1 cells [5]) | toxicity class in the MTT assay (COS-1 cells [5]; 24-h exposure, classified at 10 μM)
CCN(c1ccc(NC(=O)c2c(-c3ccccc3)noc2C)cc1)C(C)C [Compound 4i, N-[4-[Ethyl(isopropyl)amino]phenyl]-5-methyl-3-phenylisoxazole-4-carboxamide] | 64.9 | 55.3 | 84.1 | – | – | – | – | 0.82 | 0.18 | -0.77 | -0.17 | 100.09 | 98.4 | 87.88 | 85.16 | –
CCN(CC)c1ccc(NC(=O)c2c(C)noc2-c2ccccc2)cc1 [Compound 65] | 51.9 | 53.5 | 90 | 64.2 | – | – | – | 0.39 | -0.82 | -1.85 | -0.07 | 96.79 | 83.46 | 81.39 | 84.64 | –
CCN(CC)c1ccc(NC(=O)c2cnc3ncccn23)cc1 [Compound 47aa] | 101 | 112 | 108 | 132 | 144 | 118 | 130 % of control | 1.59 | 1 | 1.6 | -0.51 | 101.8 | 103.86 | 99.76 | 95.63 | –
CCN(CC)c1ccc(NC(=O)c2c(-c3ccsc3)noc2C)cc1 [Compound 39m] | 87.2 | 122 | 103 | – | – | – | – | -0.35 | 0.79 | -1.72 | -1.23 | 102.49 | 98.85 | 88.28 | 82.62 | –
CCC(OC)c1ccc(OCc2c(-c3ccccc3)noc2C)cc1 (racemic) [Compound 34e, (rac)-4-[[4-(1-Methoxypropyl)phenoxy]methyl]-5-methyl-3-phenylisoxazole] | 79.7 | 104 | 101 | – | – | – | – | 1.31 | -0.22 | -0.78 | 0.55 | 102.33 | 95.44 | 86.07 | 79.5 | –
CCN(CC)c1ccc(NC(=O)c2c(-c3ccncc3)noc2C)cc1 [Compound 39c] | 81.1 | 100 | 94 | – | – | – | – | 0.58 | 0.49 | -0.99 | -0.68 | 105.77 | 106.28 | 90.58 | 90.91 | –
CCN(c1ccc(NC(=O)c2c(C)noc2-c2ccccc2)cc1)C(C)C [Compound 63] | 41.6 | 69.7 | 68 | – | – | – | – | 0.04 | -1.53 | -2.08 | 0.01 | 99.16 | 82.83 | 75.83 | 61.58 | –
CCN(CC)c1ccc(NC(=O)c2csc(C)c2-c2ccccc2)cc1 [Compound 47t] | 61.5 | 55.2 | 74.4 | – | – | – | – | 0.5 | 1.08 | 0.5 | 2.38 | 106.87 | 104.76 | 104.28 | 99.24 | nontoxic (nontoxic compounds (cell viability >90%))
CCN(CC)c1ccc(NC(=O)c2c(C)noc2-c2cc(C)on2)cc1 [Compound 3] | 75.5 | 106 | 96.7 | 102 | – | – | – | 0.35 | -0.67 | -1.59 | -1.83 | 105.34 | 105.48 | 100.7 | 92.68 | –
CCN(CC)c1ccc(CNc2c(-c3ccccc3)noc2C)cc1 [Compound 33, N-[4-(Diethylamino)benzyl]-5-methyl-3-phenylisoxazol-4-amine] | 97.5 | 99 | 114 | – | – | – | – | 2.57 | 2.98 | 2.01 | 0.31 | 111.17 | 102.56 | 104.2 | 96.47 | –

Continued, in another order:

activity at 3 µM [1] [%] | activity at 3 µM [2] [%] | activity at 3 µM [3] [%] | activity at 10 µM [3] [%] | activity at 10 µM [1] [%] | activity at 10 µM [2] [%] | GATA4 (% of control) Mean ± SD ([3]; 10 μM, COS-1 cells, 24 h) | SMILES | LDH.1µM (COS-1 cells [4]) | LDH.3µM (COS-1 cells [4]) | LDH.10µM (COS-1 cells [4]) | LDH.30µM (COS-1 cells [4]) | MTT.1µM (COS-1 cells [5]) | MTT.3µM (COS-1 cells [5]) | MTT.10µM (COS-1 cells [5]) | MTT.30µM (COS-1 cells [5]) | toxicity class in the MTT assay (COS-1 cells [5]; 24-h exposure, classified at 10 μM)
104 | 115 | 113 | 97.4 | 96.1 | 91.1 | – | CCCn1nnc(-c2ccccc2)c1C(=O)Nc1ccc(N(CC)CC)cc1 [SI65] | 2.51 | 1.17 | 1.55 | 2.48 | 101.13 | 112.84 | 109.58 | 105.89 | –
86.4 | 84.9 | 104 | 83.8 | 71.9 | 72.2 | – | Cc1onc(-c2ccccc2)c1C(=O)Nc1ccc(OCc2ccccc2)cc1 [SI8] | -0.14 | 2.05 | -0.31 | 1.97 | 105.45 | 102.65 | 100.93 | 59.22 | –
98.9 | 88.7 | 92.7 | 78.5 | 92.2 | 71.4 | – | CCN(CC)c1ccc(NCc2c[nH]nc2-c2cc(F)cc(F)c2)cc1 [SI79] | 2.87 | 1.38 | -0.15 | -0.35 | 101.61 | 103.16 | 104.94 | 103.16 | –
101 | 118 | 87.2 | 86.9 | 93.6 | 99.9 | – | CC[N+](O)(CC)c1ccc(NC(=O)c2c(-c3ccccc3)noc2C)cc1 [SI4] | 3.36 | 1.95 | 1 | -1.21 | 104.81 | 107.68 | 104.23 | 95.62 | –
